Source: patent US20180078609A1, “METHODS AND COMPOSITIONS FOR TREATING ALZHEIMER'S DISEASE AND OTHER MEMORY-ASSOCIATED DISORDERS AND CONDITIONS” (Massachusetts Institute of Technology, priority 2016, published 2018)

Legend:
early AD mice = assay: Contextual fear conditioning memory recall (freezing) after in vivo optical LTP; parameters: species or system mouse
Text: Two distinct contexts were employed [Ryan, T. J., et al. (2015) Science 348, 1007-1013]. Context A was 29×25×22 cm chambers with grid floors, opaque triangular ceilings, red lighting, and scented with 1% acetic acid. Four mice were run simultaneously in four identical context A chambers. Context B consisted of four 30×25×33 cm chambers with perspex floors, transparent square ceilings, bright white lighting, and scented with 0.25% benzaldehyde. All mice were conditioned in context A (two 0.60 mA shocks of 2 s duration in 5 min), and tested (3 min) in contexts A and B 1 day later. […] Floors of chambers were cleaned with quatricide before and between runs. Mice were transported to and from the experimental room in their home cages using a wheeled cart. The cart and cages remained in an anteroom to the experimental rooms during all behavioral experiments. For engram labeling, mice were kept on regular food without DOX for 24 h before training. When training was complete, mice were switched back to food containing 40 mg kg^−1 DOX.
(§1) One day after CFC training and engram labelling (DG plus PP terminals) in control and early AD groups, mice were placed in an open field arena (52×26 cm) after patch cords were fitted to the fiber implants. […]

DG engram cells [1] = assay: DTR-mediated ablation of engram cells, DTR-eYFP cell counts; format: in vivo, mouse; conditions: DTR-expressing DG engram cells after DT administration
Method: Mice were dispatched using 750-1,000 mg kg^−1 avertin and perfused transcardially with PBS, followed by 4% paraformaldehyde (PFA). Brains were extracted and incubated in 4% PFA at room temperature overnight. Brains were transferred to PBS and 50 μm coronal slices were prepared using a vibratome. For immunostaining [Ryan, T. J., et al. (2015) Science 348, 1007-1013], each slice was placed in PBS+0.2% Triton X-100 (PBS-T), with 5% normal goat serum for 1 h and then incubated with primary antibody at 4° C. for 24 h. Slices then underwent three wash steps for 10 min each in PBS-T, followed by 1 h incubation with secondary antibody. […]
(§2) To characterize the expression pattern of ChR2-eYFP, DTR-eYFP, eYFP alone and oChIEF-tdTomato in control and AD mice, the number of eYFP^+/tdTomato^+ neurons were counted from 4-5 coronal slices per mouse (n=3-5 mice per group). Coronal slices centered on coordinates covered by optic fiber implants were taken for DG quantification and sagittal slices centered on injection coordinates were taken for MEC and LEC. Fluorescence images were acquired using a Zeiss Axiolmager.Z1/ApoTome microscope (×20). […] The number of eYFP^+/tdTomato^+ cells per section was calculated by applying a threshold above background fluorescence. Data were analyzed using Microsoft Excel with the Statplus plug-in. […]

DG mossy cells = assay: Calretinin (CR+) staining of mossy cell axons after engram cell ablation; format: in vivo, mouse; conditions: after DT administration
Method: Mice were dispatched using 750-1,000 mg kg^−1 avertin and perfused transcardially with PBS, followed by 4% paraformaldehyde (PFA). Brains were extracted and incubated in 4% PFA at room temperature overnight. Brains were transferred to PBS and 50 μm coronal slices were prepared using a vibratome. For immunostaining [Ryan, T. J., et al. (2015) Science 348, 1007-1013], each slice was placed in PBS+0.2% Triton X-100 (PBS-T), with 5% normal goat serum for 1 h and then incubated with primary antibody at 4° C. for 24 h. Slices then underwent three wash steps for 10 min each in PBS-T, followed by 1 h incubation with secondary antibody. After three more wash steps of 10 min each in PBS-T, slices were mounted on microscope slides. All analyses were performed blind to the experimental conditions. Antibodies used for staining were as follows: to stain for ChR2-eYFP, DTR-eYFP or eYFP alone, slices were incubated with primary chicken anti-GFP (1:1,000, Life Technologies) and visualized using anti-chicken Alexa-488 (1:200). For plaques, slices were stained using primary mouse anti-β-amyloid (1:1,000; Sigma-Aldrich) and secondary anti-mouse Alexa-488 (1:500). c-Fos was stained with rabbit anti-c-Fos (1:500, Calbiochem) and anti-rabbit Alexa-568 (1:300). Adult newborn neurons were stained with guinea pig anti-DCX (1:1,000; Millipore) and anti-guinea-pig Alexa-555 (1:500). […]

DG engram cells [2] = assay: Dendritic spine density analysis of DG engram cells after in vivo optical LTP; parameters: species or system mouse; conditions: early AD mice treated with anisomycin after LTP induction
Method: Engram cells were labelled using c-Fos-tTA-driven synthesis of ChR2-eYFP or eYFP alone. The eYFP signal was amplified using immunohistochemistry procedures, after which fluorescence z-stacks were taken by confocal microscopy (Zeiss LSM700) using a×40 objective. Maximum intensity projections were generated using ZEN Black software (Zeiss). Four mice per experimental group were analyzed for dendritic spines. For each mouse, 30-40 dendritic fragments of 10-μm length were quantified (n=120-160 fragments per group). To measure spine density of DG engram cells with a focus on entorhinal cortical inputs, distal dendritic fragments in the middle-to-outer molecular layer (ML) were selected. For CA3 and CA1 engram cells, apical and basal dendritic fragments were selected. To compute spine density, the number of spines counted on each fragment was normalized by the cylindrical approximation of the surface of the specific fragment. Experiments were conducted blind to experimental group. Researcher 1 imaged dendritic fragments and randomized images, while researcher 2 performed manual spine counting.
as §1

DG = assay: Kainic acid seizure-induced ChR2-eYFP labelling; format: in vivo, mouse; conditions: 1 day off DOX; 15 mg kg−1 i.p. kainic acid
Method: For seizure experiments [Liu, X., et al. (2012) Nature 484, 381-385], mice were taken off DOX for 1 day and injected intraperitoneally with 15 mg kg^−1 kainic acid (KA). Mice were returned to DOX food 6 h after KA treatment and perfused the next day for immunohistochemistry procedures.
as §2, with “plug-in. A similar approach was applied for quantifying amyloid-3 plaques, c-Fos^+ neurons and adult newborn (DCX^+) neurons. Total engram cell reactivation was calculated as ((c-Fos^+ eYFP^+)/(total DAPI^+))×100. Chance overlap was calculated as ((c-Fos^+/total DAPI^+)×(eYFP^+/total DAPI^+))×100. Percentage of adult newborn neurons expressing neuronal markers was calculated as ((NeuN^+ DCX^+)/(total DCX^+))×100.” for “plug-in.”

diphtheria toxin
Memory recall freezing vs saline-treated mice (early AD mice; AD rescue+DTR+DT, after optical LTP spine restoration): less freezing
Ablation of DG engram cells (DG engram cells [1]): efficiently ablated DG engram cells
Effect on nearby DG mossy cells (DG mossy cells): intact

COc1ccc(C[C@H]2NC[C@H](O)[C@H]2OC(C)=O)cc1 [anisomycin]
Memory recall freezing vs saline-treated AD mice (early AD mice; AD+100 Hz+Aniso, 2 days after LTP induction followed by drug administration, 75 mg kg−1 i.p. twice): less freezing
Average dendritic spine density vs saline-treated AD mice (DG engram cells [2]): decreased

C=C(C)[C@H]1CN[C@H](C(=O)O)[C@H]1CC(=O)O [kainic acid]
ChR2-eYFP labelling after seizures (DG): efficient labelling throughout the DG
